Reference: patent US20230293539A1, “MLL1-WDR5 PROTEIN-PROTEIN INTERACTION INHIBITOR COMPOUNDS AND USES THEREOF” (HUYABIO International, LLC, priority 2022, published 2023)

Tests used:
WDR5 = WDR5 (Homo sapiens, UniProt P61964); assay: WDR5 TR-FRET Assay; type: binding; details: 5 nM WDR5 protein, 10 nM peptide, read-out: IC50 (MLL1-WDR5 PPI inhibitory activity)
Procedure: WDR5 TR-FRET Assay Procedure: Stock compounds were transferred to the assay plate by Echo Liquid Handler. Reactions were performed in the assay buffer (1×PBS, 300 mM NaCl, 0.5 mM TCEP, 0.1% CHAPS) containing 5 nM WDR5 protein, 10 nM peptide (Ac-ARTEVHLRKS-[Ahx-Ahx][C]-Alexa Fluor 488-NH2) and 0.25 nM Tb-anti His antibody (Tb-Ab) in 384-well white plate (PerkinElmer) with a final volume of 20 μl. Compounds were incubated with WDR5 protein for 30 min at room temperature. Plates were covered, protected from light and incubated for 60 min. at room temperature after adding the peptide and Tb-Ab. EnVision Multimode Plate Reader (PerkinElmer) was used for the TR-FRET assay with excitation wavelength at 340 nm and emission wavelength at 495 and 520 nm. The ratio of the 520/495 nm wavelengths were used to assess the degree of the FRET signal. IC50 was calculated by fitting the inhibition data using XLfit software to sigmoidal dose-response model.

BRDT-BD1 = molecular target: T1, BRDT-BD1 (Homo sapiens, UniProt Q58F21); assay: Selectivity panel (Table 3); type: binding
T1 construct: BRDT-BD1

HDAC2 = HDAC2 (Homo sapiens, UniProt Q92769); assay: Selectivity panel (Table 3); type: biochemical
HDAC3 = HDAC3 (Homo sapiens, UniProt O15379); assay: Selectivity panel (Table 3); type: biochemical
HDAC8 = HDAC8 (Homo sapiens, UniProt Q9BY41); assay: Selectivity panel (Table 3); type: biochemical
KRAS G12C = KRAS G12C (Homo sapiens, UniProt P01116, G12C); assay: Selectivity panel (Table 3); type: binding
LSD1 = LSD1 (Homo sapiens, UniProt O60341); assay: Selectivity panel (Table 3); type: biochemical
MALTI = MALTI (Homo sapiens, UniProt Q9UDY8); assay: Selectivity panel (Table 3); type: biochemical
POLQ ATPase = POLQ ATPase (Homo sapiens, UniProt O75417); assay: Selectivity panel (Table 3); type: biochemical
PRMT5 = PRMT5 (Homo sapiens, UniProt O14744); assay: Selectivity panel (Table 3); type: biochemical
PTP1B = PTP1B (Homo sapiens, UniProt P18031); assay: Selectivity panel (Table 3); type: biochemical
TEAD3 = TEAD3 (Homo sapiens, UniProt Q99594); assay: Selectivity panel (Table 3); type: binding
[1] = Compound formulation stability assay; type: physicochemical; details: 10 mg/mL in 10% DMSO/10% solutol HS 15/80% water, 2-8° C.
Procedure: Compound formulation stability assay: Test articles were formulated in 10% DMSO/10% solutol HS 15/80% water and stored at 4° C. Formulated compounds were analyzed by a HPLC-UV method for actual concentrations and % remaining on Day 1, 4 and 7 after formulation to determine the stability of the formulated test article. The HPLC system was equipped with Shimadzu LC-20 high-performance liquid chromatograph, SIL-20AC auto sampler, LC-20AB pump and SPD-M20A detector. A Waters XBridge C18 (4.6*100 mm) column was applied for the separation. […]

Liver S9 stability assay [2] = type: in vitro ADME, rat
Procedure: (§1) Liver S9 stability assay: Test compounds (1 μM) and positive control were incubated with 5 mM GSH and liver S9 (1 mg protein/ml) from multiple species (including human, monkey, dog, rat and mouse) at 37° C. at 0, 10, 30, and 60 minutes in duplicate. After adding the stop solution, 100 μL of supernatant were analyzed by LC-MS/MS. The % remaining of test compound, T1/2 (min), and CLint (μL/min/mg) were calculated and were reported.

Liver S9 stability assay [3] = type: in vitro ADME, dog
Procedure: as §1

[4] = Metabolite ID in Liver S9; type: in vitro ADME; details: HBI-2375 and metabolites in Mouse liver S9
[5] = Metabolite ID in Liver S9; type: in vitro ADME; details: HBI-2375 and metabolites in Rat liver S9
[6] = WBS (whole blood stability) assay; type: in vitro ADME; details: for % Remaining after 60 min incubation: 2 μM, 37° C.
Procedure: WBS (whole blood stability) assay: The blood samples were collected freshly from multiple species including human, monkey, dog, rat and mouse. 2 μM of test compound and positive control were incubated with the whole blood at 37° C. at 0, 10, 30, 60, and 120 minutes in duplicate. After adding the stop solution, 200 μL of supernatant were analyzed by LC-MS/MS. The % remaining of test compound and T1/2 (min) were calculated and reported.

in vitro [7] = details: mouse, plasma
in vitro [8] = details: dog, plasma
in vitro [9] = details: cynomolgus monkey, plasma

Sequence of PRMT5 (O14744 whole entry, species assumed): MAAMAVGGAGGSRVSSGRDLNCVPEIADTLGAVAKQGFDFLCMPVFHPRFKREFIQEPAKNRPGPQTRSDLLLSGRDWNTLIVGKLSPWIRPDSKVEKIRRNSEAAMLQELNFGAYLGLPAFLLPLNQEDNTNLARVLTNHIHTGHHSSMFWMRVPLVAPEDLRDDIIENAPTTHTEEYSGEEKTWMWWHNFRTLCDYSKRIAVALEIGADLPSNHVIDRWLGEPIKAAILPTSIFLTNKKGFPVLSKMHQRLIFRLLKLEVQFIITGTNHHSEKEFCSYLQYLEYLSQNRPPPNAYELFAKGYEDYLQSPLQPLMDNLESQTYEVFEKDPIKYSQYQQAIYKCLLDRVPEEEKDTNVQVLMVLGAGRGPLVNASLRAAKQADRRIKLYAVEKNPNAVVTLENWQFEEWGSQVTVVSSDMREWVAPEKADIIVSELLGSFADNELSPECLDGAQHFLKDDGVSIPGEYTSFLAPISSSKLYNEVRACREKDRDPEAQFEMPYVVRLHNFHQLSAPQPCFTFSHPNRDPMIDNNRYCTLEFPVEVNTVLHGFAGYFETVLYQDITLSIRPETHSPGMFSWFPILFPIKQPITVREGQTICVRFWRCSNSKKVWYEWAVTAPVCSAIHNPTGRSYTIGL
Sequence of PRMT5 (Q9BQA1 whole entry partner, species assumed): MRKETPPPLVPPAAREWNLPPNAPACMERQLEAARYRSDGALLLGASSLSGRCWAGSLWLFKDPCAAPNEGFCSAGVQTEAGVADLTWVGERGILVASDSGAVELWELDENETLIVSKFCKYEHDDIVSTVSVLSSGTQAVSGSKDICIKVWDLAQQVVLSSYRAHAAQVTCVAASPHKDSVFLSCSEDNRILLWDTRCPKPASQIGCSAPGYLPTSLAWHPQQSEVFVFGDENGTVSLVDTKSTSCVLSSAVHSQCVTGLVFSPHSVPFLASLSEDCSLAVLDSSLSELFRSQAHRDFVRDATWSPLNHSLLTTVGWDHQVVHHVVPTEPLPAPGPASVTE
Sequence of HDAC2 (Q92769 whole entry, species assumed): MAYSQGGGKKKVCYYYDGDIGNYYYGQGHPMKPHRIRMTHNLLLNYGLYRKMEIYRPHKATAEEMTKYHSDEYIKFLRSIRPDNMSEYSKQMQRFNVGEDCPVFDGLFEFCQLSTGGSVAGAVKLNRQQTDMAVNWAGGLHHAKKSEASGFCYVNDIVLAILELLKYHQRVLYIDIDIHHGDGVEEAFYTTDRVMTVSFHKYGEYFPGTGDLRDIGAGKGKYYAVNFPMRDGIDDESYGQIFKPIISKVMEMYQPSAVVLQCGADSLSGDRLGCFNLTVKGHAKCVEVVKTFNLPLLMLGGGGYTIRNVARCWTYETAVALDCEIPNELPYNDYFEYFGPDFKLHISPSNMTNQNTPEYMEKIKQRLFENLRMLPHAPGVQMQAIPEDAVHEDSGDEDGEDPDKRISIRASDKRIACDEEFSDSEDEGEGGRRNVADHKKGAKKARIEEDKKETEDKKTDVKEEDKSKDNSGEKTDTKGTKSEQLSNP
Sequence of KRAS G12C (P01116 1-188 isoform P01116-2 G12C): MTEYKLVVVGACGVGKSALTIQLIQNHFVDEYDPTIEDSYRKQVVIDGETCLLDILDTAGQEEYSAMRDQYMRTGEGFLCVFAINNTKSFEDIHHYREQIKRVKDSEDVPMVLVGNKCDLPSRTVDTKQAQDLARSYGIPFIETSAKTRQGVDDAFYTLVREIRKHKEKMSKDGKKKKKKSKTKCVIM
Sequence of POLQ ATPase (O75417 whole entry): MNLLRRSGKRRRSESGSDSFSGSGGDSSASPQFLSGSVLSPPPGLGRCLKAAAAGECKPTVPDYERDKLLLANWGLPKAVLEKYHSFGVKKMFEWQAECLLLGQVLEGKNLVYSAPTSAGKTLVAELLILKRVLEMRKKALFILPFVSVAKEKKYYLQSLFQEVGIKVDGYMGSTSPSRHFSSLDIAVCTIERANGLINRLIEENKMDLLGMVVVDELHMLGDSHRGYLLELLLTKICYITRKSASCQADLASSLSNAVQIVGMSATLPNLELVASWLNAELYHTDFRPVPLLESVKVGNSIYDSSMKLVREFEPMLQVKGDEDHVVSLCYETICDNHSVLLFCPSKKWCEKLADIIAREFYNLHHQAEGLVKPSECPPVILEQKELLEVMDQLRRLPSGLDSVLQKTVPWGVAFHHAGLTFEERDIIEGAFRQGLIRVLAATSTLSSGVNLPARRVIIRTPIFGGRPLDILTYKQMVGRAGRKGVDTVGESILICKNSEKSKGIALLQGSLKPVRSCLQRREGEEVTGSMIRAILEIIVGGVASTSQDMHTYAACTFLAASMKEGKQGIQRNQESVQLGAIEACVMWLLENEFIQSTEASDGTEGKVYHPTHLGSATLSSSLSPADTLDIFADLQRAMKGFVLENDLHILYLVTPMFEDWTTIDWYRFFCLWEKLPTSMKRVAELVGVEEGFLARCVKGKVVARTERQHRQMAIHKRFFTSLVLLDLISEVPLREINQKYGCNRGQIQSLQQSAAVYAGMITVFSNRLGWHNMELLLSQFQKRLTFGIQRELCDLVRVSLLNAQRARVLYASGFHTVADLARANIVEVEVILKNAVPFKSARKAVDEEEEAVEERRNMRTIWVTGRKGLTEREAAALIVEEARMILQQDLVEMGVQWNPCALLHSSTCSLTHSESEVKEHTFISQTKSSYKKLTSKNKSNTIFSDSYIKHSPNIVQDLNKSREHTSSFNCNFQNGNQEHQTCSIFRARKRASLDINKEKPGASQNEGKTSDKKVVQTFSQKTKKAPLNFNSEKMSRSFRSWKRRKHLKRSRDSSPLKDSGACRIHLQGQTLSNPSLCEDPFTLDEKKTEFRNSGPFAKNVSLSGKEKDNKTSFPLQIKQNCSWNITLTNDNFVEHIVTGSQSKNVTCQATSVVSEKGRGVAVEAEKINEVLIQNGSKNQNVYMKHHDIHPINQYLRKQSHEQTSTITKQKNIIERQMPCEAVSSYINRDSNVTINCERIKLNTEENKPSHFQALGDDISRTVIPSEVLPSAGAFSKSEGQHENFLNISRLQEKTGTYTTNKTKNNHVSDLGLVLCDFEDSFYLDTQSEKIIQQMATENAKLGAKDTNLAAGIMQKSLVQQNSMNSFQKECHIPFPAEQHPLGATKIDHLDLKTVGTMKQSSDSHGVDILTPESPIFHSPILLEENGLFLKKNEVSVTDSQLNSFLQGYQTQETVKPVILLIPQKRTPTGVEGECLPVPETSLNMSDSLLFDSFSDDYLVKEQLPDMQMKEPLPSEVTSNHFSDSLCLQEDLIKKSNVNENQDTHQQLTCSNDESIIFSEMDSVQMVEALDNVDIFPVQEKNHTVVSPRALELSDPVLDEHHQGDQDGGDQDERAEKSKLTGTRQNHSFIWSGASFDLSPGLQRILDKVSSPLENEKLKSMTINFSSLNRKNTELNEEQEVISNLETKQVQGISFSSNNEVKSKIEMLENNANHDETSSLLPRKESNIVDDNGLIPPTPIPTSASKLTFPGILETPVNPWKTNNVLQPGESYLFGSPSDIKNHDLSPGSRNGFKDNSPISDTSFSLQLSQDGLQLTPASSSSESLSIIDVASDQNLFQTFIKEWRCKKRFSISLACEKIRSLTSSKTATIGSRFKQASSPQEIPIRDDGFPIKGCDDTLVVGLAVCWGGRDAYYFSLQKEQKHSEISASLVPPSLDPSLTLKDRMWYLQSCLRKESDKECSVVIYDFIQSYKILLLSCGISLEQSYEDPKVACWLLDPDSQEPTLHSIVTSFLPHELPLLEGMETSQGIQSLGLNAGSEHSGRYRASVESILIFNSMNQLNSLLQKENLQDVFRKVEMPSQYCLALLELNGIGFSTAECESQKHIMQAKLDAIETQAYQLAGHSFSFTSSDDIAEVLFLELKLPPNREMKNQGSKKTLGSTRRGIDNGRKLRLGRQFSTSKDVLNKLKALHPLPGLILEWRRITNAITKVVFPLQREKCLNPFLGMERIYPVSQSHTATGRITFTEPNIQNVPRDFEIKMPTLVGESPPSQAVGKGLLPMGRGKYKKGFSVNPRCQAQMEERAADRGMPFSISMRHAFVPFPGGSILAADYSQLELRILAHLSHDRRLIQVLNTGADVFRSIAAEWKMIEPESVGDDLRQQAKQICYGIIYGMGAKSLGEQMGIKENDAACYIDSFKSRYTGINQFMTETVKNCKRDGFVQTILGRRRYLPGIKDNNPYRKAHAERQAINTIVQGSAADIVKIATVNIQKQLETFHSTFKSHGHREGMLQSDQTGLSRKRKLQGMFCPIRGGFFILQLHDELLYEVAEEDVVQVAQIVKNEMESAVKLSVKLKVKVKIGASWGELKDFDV
Sequence of MALTI (Q9UDY8 whole entry): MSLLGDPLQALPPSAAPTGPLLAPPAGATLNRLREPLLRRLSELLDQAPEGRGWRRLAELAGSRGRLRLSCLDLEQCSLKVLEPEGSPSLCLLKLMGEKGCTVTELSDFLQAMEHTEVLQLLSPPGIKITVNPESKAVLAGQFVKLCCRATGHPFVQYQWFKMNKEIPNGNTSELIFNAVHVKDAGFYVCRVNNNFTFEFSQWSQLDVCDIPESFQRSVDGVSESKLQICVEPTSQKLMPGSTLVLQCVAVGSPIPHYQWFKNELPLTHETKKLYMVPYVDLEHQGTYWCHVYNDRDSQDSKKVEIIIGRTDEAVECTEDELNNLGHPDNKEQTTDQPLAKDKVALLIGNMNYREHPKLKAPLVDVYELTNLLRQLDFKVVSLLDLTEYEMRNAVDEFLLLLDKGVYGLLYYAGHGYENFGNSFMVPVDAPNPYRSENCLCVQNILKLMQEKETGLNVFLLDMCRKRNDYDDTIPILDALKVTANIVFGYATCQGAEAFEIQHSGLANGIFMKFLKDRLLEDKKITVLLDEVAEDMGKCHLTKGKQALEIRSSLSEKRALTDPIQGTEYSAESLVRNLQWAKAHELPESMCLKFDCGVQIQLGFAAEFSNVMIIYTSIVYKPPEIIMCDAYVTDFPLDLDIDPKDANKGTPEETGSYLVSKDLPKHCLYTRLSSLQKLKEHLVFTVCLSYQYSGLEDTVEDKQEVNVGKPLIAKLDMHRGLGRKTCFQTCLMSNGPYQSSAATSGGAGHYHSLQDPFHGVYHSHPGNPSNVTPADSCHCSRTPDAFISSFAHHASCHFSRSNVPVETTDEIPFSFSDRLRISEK

For Cc1c(F)c(N)cc(C(=O)Nc2cc(-n3cc(C(=O)N4CCN(C)CC4)nn3)c(F)cc2N2C[C@@H](C)N(C)[C@@H](C)C2)c1Cl [HYBI-084, 5-amino-2-chloro-4-fluoro-N-(4-fluoro-5-(4-(4-methylpiperazine-1-carbonyl)-1H-1,2,3-triazol-1-yl)-2-((3S,5R)-3,4,5-trimethylpiperazin-1-yl)phenyl)-3-methylbenzamide], which IC50 (WDR5) is on record?
Its IC50 is 4.48 nM.

What about the IC50 (BRDT-BD1) of the same compound?
The IC50 was over 1000 nM.

And the IC50 (HDAC2)?
Its IC50 is over 1000 nM.

And the IC50 (HDAC3)?
Its IC50 is over 1000 nM.

And the IC50 (HDAC8)?
The IC50 was over 1000 nM.

And the IC50 (KRAS G12C)?
The IC50 was over 1000 nM.

And the IC50 (LSD1)?
Its IC50 is over 1000 nM.

What about the IC50 (MALTI) of the same compound?
Its IC50 is over 1000 nM.

And the IC50 (POLQ ATPase)?
Its IC50 is over 1000 nM.

What about the IC50 (PRMT5) of the same compound?
Its IC50 is over 1000 nM.

And the IC50 (PTP1B)?
Its IC50 is over 1000 nM.

What about the IC50 (TEAD3) of the same compound?
Its IC50 is over 1000 nM.

And the “Accuracy % (Day 0)” value ([1]; Day 0)?
The value was 92.8%.

What about the “Formulation Appearance (Day 0)” value ([1]; Day 0) of the same compound?
The value was “clear solution”.

And the “Remaining % (Day 0)” value ([1]; Day 0)?
Its value is 100%.

And the “Accuracy % (Day 1)” value ([1]; Day 1)?
The value was 93.4%.

And the “Formulation Appearance (Day 1)” value ([1]; Day 1)?
The value was “clear solution”.

And the “Remaining % (Day 1)” value ([1]; Day 1)?
Its value is 101%.

And the “Accuracy % (Day 4)” value ([1]; Day 4)?
The value was 92.9%.

And the “Formulation Appearance (Day 4)” value ([1]; Day 4)?
The value was “clear solution”.

What about the “Remaining % (Day 4)” value ([1]; Day 4) of the same compound?
Its value is 100%.

And the “Accuracy % (Day 7)” value ([1]; Day 7)?
The value was 91.5%.

What about the “Formulation Appearance (Day 7)” value ([1]; Day 7) of the same compound?
The value was “clear solution”.

And the “Remaining % (Day 7)” value ([1]; Day 7)?
The value was 98.7%.

And the half-life at 1 μM (Liver S9 stability assay [2]; Rat liver S9)?
Its half-life at 1 μM is over 2.42 h.

And the microsomal CLint at 1 μM (Liver S9 stability assay [2]; Rat liver S9)?
The microsomal CLint at 1 μM was under 4.8 µL/min/mg.

What about the “% Remaining after 60 min incubation” value (Liver S9 stability assay [2]; Rat liver S9, 1 μM, 5 mM GSH, 37° C.) of the same compound?
The value was 80.1%.

And the half-life at 1 μM (Liver S9 stability assay [3]; Dog liver S9)?
The half-life at 1 μM was over 2.42 h.

What about the microsomal CLint at 1 μM (Liver S9 stability assay [3]; Dog liver S9) of the same compound?
Its microsomal CLint at 1 μM is under 4.8 µL/min/mg.

What about the “% Remaining after 60 min incubation” value (Liver S9 stability assay [3]; Dog liver S9, 1 μM, 5 mM GSH, 37° C.) of the same compound?
Its value is 92.5%.

And the “Relative Abundance (UV Peak Area % Total)” value [4]?
Its value is 63.02%.

And the “Relative Abundance (UV Peak Area % Total)” value [5]?
Its value is 71.86%.

What about the half-life at 2 μM ([6]; Dog whole blood) of the same compound?
Its half-life at 2 μM is over 2.41 h.

What about the “% Remaining after 60 min incubation” value ([6]; Dog whole blood) of the same compound?
Its value is 94.6%.

What about the half-life at 2 μM ([6]; Human whole blood) of the same compound?
The half-life at 2 μM was 10.3 h.

And the “% Remaining after 60 min incubation” value ([6]; Human whole blood)?
Its value is 110%.

And the half-life at 2 μM ([6]; Mouse whole blood)?
The half-life at 2 μM was over 2.41 h.

And the “% Remaining after 60 min incubation” value ([6]; Mouse whole blood)?
Its value is 108%.

What about the half-life at 2 μM ([6]; Rat whole blood) of the same compound?
Its half-life at 2 μM is over 2.41 h.

And the “% Remaining after 60 min incubation” value ([6]; Rat whole blood)?
The value was 109%.

And the fraction unbound (in vitro [7])?
The fraction unbound was under 0.07.

What about the fraction unbound (in vitro [8]) of the same compound?
Its fraction unbound is under 0.24.

What about the fraction unbound (in vitro [9]) of the same compound?
The fraction unbound was under 0.24.
